Source: patent EP4772162A1, “COMPOSITION FOR IMPROVING SKIN CONDITION COMPRISING PEPTIDE AS ACTIVE INGREDIENT” (Caregen Co., Ltd., priority 2023, dated 2025)
Peptide text beside a SMILES is read from it.

Tests used:
[1] = test system: MMP-1 in NIH3T3 cells; experiment: Inhibition of UV-induced MMP-1 expression (Western blot); assay type: cell-based, mouse; conditions: UVA at 6 J/cm^2, peptide at 10 µM, 50 µM, and 100 µM, 24 hours after irradiation, FIG. 6A
Protocol: (§1) The effect of the peptide of SEQ ID NO: 1 prepared in Preparation Example 1 on MMP-1 expression induced by UV was evaluated.
(§2) NIH3T3 cells (a mouse fibroblast cell line) and HaCaT cells (a human keratinocyte cell line) were seeded in a 6-well plate at a density of 5 x 10^5 cells/well and cultured for 24 hours. The cultured cells were washed once with serum-free DMEM. The peptide prepared in Preparation Example 1 was mixed into serum-free DMEM at each concentration to prepare medium solutions containing the peptide at 10 µM, 50 µM, and 100 µM, and the medium solutions were added to the cells. The cells to which the peptide was added were cultured for 1 hour in a CO2 incubator at 37°C. After the cells were cultured, the medium was removed from the cells, and PBS was added. Using a UV irradiator (VILBER LOURMAT, Cat. No.: 3102-BSU, France), NIH3T3 cells were irradiated with UVA at 6 J/cm^2, and HaCaT cells were irradiated with UVB at 15 mJ/cm^2. After PBS was removed, the above-described peptide-containing medium solutions at the respective concentrations were added again to the cells. The cells to which the peptide was added were cultured for 24 hours in a CO2 incubator at 37°C. […] After treatment with an ECL solution (GE Healthcare, Cat. No.: RPN2232, USA), expression levels were analyzed using an ImageQuant 800 instrument (Cytiva, Cat. No.: 29-3994-81, USA).

[2] = test system: reactive oxygen species (ROS) in HaCaT cells; experiment: Inhibition of UV-induced generation of reactive oxygen species (DCFH-DA, FACS); assay type: cell-based, human; conditions: UVB at 15 mJ/cm^2, peptide at 10 µM, 50 µM, and 100 µM, 24 hours after irradiation, FIG. 3B
Protocol: (§3) NIH3T3 cells (a mouse fibroblast cell line) and HaCaT cells (a human keratinocyte cell line) were seeded in a 6-well plate at a density of 5 x 10^5 cells/well and cultured for 24 hours. The cultured cells were washed once with serum-free DMEM. The peptide prepared in Preparation Example 1 was mixed into serum-free DMEM at each concentration to prepare medium solutions containing the peptide at 10 µM, 50 µM, and 100 µM, and the medium solutions were added to the cells. The cells to which the peptide was added were cultured for 1 hour in a CO2 incubator at 37°C. After the culture, the medium was removed from the cells, and PBS was added. Using a UV irradiator (VILBER LOURMAT, Cat. No.: 3102-BSU, France), NIH3T3 cells were irradiated with UVA at 6 J/cm^2, and HaCaT cells were irradiated with UVB at 15 mJ/cm^2. After PBS was removed, the above-described peptide-containing medium solutions at the respective concentrations were added again to the cells. The cells to which the peptide was added were cultured for 24 hours in a CO2 incubator at 37°C. After treatment with 10 µM DCFH-DA (2',7'-dichlorofluorescein diacetate), the cells were wrapped in foil and cultured for 30 minutes in a CO2 incubator at 37°C. Subsequently, the cells were washed twice with PBS and then collected, and fluorescence values were measured by FACS.

[3] = test system: MMP-1 in HaCaT cells; experiment: Inhibition of UV-induced MMP-1 expression (Western blot); assay type: cell-based, human; conditions: UVB at 15 mJ/cm^2, peptide at 10 µM, 50 µM, and 100 µM, 24 hours after irradiation, FIG. 6B
Protocol: as §1, §2

[4] = test system: fibronectin gene; experiment: Restoration of expression of extracellular matrix genes reduced by UV irradiation (RT-PCR); assay type: cell-based, mouse; conditions: NIH3T3 cells; UVA at 6 J/cm^2; peptide at 10 µM, 50 µM, and 100 µM; 6 hours after irradiation; FIG. 4
Protocol: (§4) Whether the peptide of SEQ ID NO: 1 prepared in Preparation Example 1 restores expression levels of extracellular matrix genes reduced by UV irradiation was evaluated.
(§5) NIH3T3 cells (a mouse fibroblast cell line) were seeded in a 6-well plate at a density of 5 x 10^5 cells/well and cultured for 24 hours. The cultured cells were washed once with serum-free DMEM. The peptide prepared in Preparation Example 1 was mixed into serum-free DMEM at each concentration to prepare medium solutions containing the peptide at 10 µM, 50 µM, and 100 µM, and the medium solutions were added to the cells. The cells to which the peptide was added were cultured for 1 hour in a CO2 incubator at 37°C. After the cells were cultured, the medium was removed from the cells, and PBS was added. Using a UV irradiator (VILBER LOURMAT, Cat. No.: 3102-BSU, France), the cells were irradiated with UVA at 6 J/cm^2. After PBS was removed, the above-described peptide-containing medium solutions at the respective concentrations were added again to the cells. The cells to which the peptide was added were cultured for 6 hours in a CO2 incubator at 37°C. After the cells were washed twice with PBS, RNA was isolated using easy blue (iNtRON, Cat. No.: 17061, Korea). The amount of RNA was quantified, 1,000 ng of RNA was added per tube, and then cDNA synthesis was performed using an RT kit (enzynomics, Cat. No.: RT200, Korea). Subsequently, PCR was performed using a PCR kit (enzynomics, Cat. No.: P581T, Korea), with collagen Iα1, fibronectin, or elastin gene as a detection target.

[5] = test system: collagen Iα1 gene; experiment: as above; assay type: cell-based, mouse; conditions: NIH3T3 cells; UVA at 6 J/cm^2; peptide at 10 µM, 50 µM, and 100 µM; 6 hours after irradiation; FIG. 4
Protocol: as §4, §5

[6] = test system: elastin gene; experiment: as above; assay type: cell-based, mouse; conditions: NIH3T3 cells; UVA at 6 J/cm^2; peptide at 10 µM, 50 µM, and 100 µM; 6 hours after irradiation; FIG. 4
Protocol: as §4, §5

[7] = test system: fibronectin gene; experiment: mRNA expression of extracellular matrix component genes (RT-PCR); assay type: cell-based, mouse; conditions: NIH3T3 cells; peptide at 10 µM, 50 µM, and 100 µM; 24 hours; FIG. 1
Protocol: (§6) The effect of the peptide prepared in Preparation Example 1 on expression of extracellular matrix (ECM) components was evaluated by measuring mRNA expression levels of the genes of the respective components.
(§7) NIH3T3 cells (a mouse fibroblast cell line) were seeded in a 6-well plate at a density of 3 x 10^5 cells/well and cultured for 24 hours. The cultured cells were washed once with serum-free DMEM. The peptide prepared in Preparation Example 1 was mixed into serum-free DMEM at each concentration to prepare medium solutions containing the peptide at 10 µM, 50 µM, and 100 µM, and the medium solutions were added to the cells. The cells were cultured for 24 hours in a CO2 incubator at 37°C and washed twice with PBS, and then RNA was isolated using easy blue (iNtRON, Cat. No.: 17061, Korea). The amount of RNA was quantified, 1,000 ng of RNA was added per tube, and then cDNA synthesis was performed using an RT kit (enzynomics, Cat. No.: RT200, Korea). Thereafter, PCR was performed using a PCR kit (enzynomics, Cat. No.: P581T, Korea), with collagen Iα1, fibronectin, or elastin gene as a detection target.

[8] = test system: collagen Iα1 (Collagen, type I, alpha 1) gene; experiment: as above; assay type: cell-based, mouse; conditions: NIH3T3 cells; peptide at 10 µM, 50 µM, and 100 µM; 24 hours; FIG. 1
Protocol: as §6, §7

[9] = test system: elastin gene; experiment: as above; assay type: cell-based, mouse; conditions: NIH3T3 cells; peptide at 10 µM, 50 µM, and 100 µM; 24 hours; FIG. 1
Protocol: as §6, §7

[10] = test system: AQP3 gene; experiment: Restoration of expression of skin barrier-related genes reduced by UV irradiation (RT-PCR); assay type: cell-based, human; conditions: HaCaT cells; UVB at 20 mJ/cm^2; peptide at 10 µM, 50 µM, and 100 µM; 4 hours after irradiation; FIG. 5
Protocol: (§8) Whether the peptide of SEQ ID NO: 1 prepared in Preparation Example 1 restores expression levels of skin barrier-related genes reduced by UV irradiation was evaluated.
as §5, with “HaCaT cells” for “NIH3T3 cells”, “(a human keratinocyte” for “(a mouse fibroblast”, “with UVB” for “with UVA”, “at 20 mJ/cm^2.” for “at 6 J/cm^2.”, “for 4” for “for 6”, “Korea). […]” for “Korea). Subsequently, PCR was performed using a PCR kit (enzynomics, Cat. No.: P581T, Korea), with collagen Iα1, fibronectin, or elastin gene as a detection target.”

[11] = test system: SIRT1 gene; experiment: as above; assay type: cell-based, human; conditions: HaCaT cells; UVB at 20 mJ/cm^2; peptide at 10 µM, 50 µM, and 100 µM; 4 hours after irradiation; FIG. 5
Protocol: as §8
as §5, with “HaCaT cells” for “NIH3T3 cells”, “(a human keratinocyte” for “(a mouse fibroblast”, “with UVB” for “with UVA”, “at 20 mJ/cm^2.” for “at 6 J/cm^2.”, “for 4” for “for 6”, “Korea). […]” for “Korea). Subsequently, PCR was performed using a PCR kit (enzynomics, Cat. No.: P581T, Korea), with collagen Iα1, fibronectin, or elastin gene as a detection target.”

[12] = test system: reactive oxygen species (ROS) in NIH3T3 cells; experiment: Inhibition of UV-induced generation of reactive oxygen species (DCFH-DA, FACS); assay type: cell-based, mouse; conditions: UVA at 6 J/cm^2, peptide at 10 µM, 50 µM, and 100 µM, 24 hours after irradiation, FIG. 3A
Protocol: as §3

[13] = test system: SIRT1 (Sirtuin 1) gene; experiment: mRNA expression of skin barrier-related genes (RT-PCR); assay type: cell-based, human; conditions: HaCaT cells; peptide at 10 µM, 50 µM, and 100 µM; 24 hours; FIG. 2
Protocol: (§9) The effect of the peptide prepared in Preparation Example 1 on expression of genes related to a skin barrier was evaluated.
as §7, with “HaCaT” for “NIH3T3”, “human keratinocyte” for “mouse fibroblast”, “SIRT1 (Sirtuin 1)” for “collagen Iα1, fibronectin,”, “AQP3 (Aquaporin 3)” for “elastin”

[14] = test system: AQP3 (Aquaporin 3) gene; experiment: as above; assay type: cell-based, human; conditions: HaCaT cells; peptide at 10 µM, 50 µM, and 100 µM; 24 hours; FIG. 2
Protocol: as §9
as §7, with “HaCaT” for “NIH3T3”, “human keratinocyte” for “mouse fibroblast”, “SIRT1 (Sirtuin 1)” for “collagen Iα1, fibronectin,”, “AQP3 (Aquaporin 3)” for “elastin”

## CC(C)C[C@H](NC(=O)[C@H](CC(C)C)NC(=O)[C@@H](N)CCCNC(=N)N)C(=O)N[C@@H](CC(N)=O)C(=O)O [peptide of SEQ ID NO: 1, RLLN] (H-RLLN-OH)
[1]
  increase in MMP-1 expression induced by UV irradiation: inhibited
[2]
  intracellular ROS levels increased by UV irradiation: reduced
[3]
  increase in MMP-1 expression induced by UV irradiation: inhibited
[4]
  mRNA expression level of fibronectin gene reduced by UV irradiation: increased again
[5]
  mRNA expression level of collagen Iα1 gene reduced by UV irradiation: increased again
[6]
  mRNA expression level of elastin gene reduced by UV irradiation: increased again
[7]
  mRNA expression level of fibronectin gene: increased
[8]
  mRNA expression level of collagen Iα1 (Collagen, type I, alpha 1) gene: increased
[9]
  mRNA expression level of elastin gene: increased
[10]
  mRNA expression level of AQP3 gene reduced by UV irradiation: restored
[11]
  mRNA expression level of SIRT1 gene reduced by UV irradiation: restored
[12]
  intracellular ROS levels increased by UV irradiation: reduced
[13]
  mRNA expression level of SIRT1 (Sirtuin 1) gene: increased
[14]
  mRNA expression level of AQP3 (Aquaporin 3) gene: increased
